This test concerns B6C3F1 mice, ip Sarcoma M5076, median survival T/C. Put plainly: NCI In Vivo Anticancer Drug Screen. Data for tumor model Sarcoma M5076 (intraperitoneal) in B6C3F1 mice. The settings on record: endpoint: median survival time, schedule: Q04DX004 (ip), higher = longer survival. The gist of the method:
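Survival measured in treated (T) and vehicle control (C) mice with transplantable tumour; result given as T divided by C.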

The mark [1] stands for this setting: dose: 12.5 mg/kg/injection, vehicle: saline.
The mark [2] stands for this setting: dose: 25.0 mg/kg/injection, vehicle: Klucel (hydroxypropylcellulose) (HPC).
The mark [3] stands for this setting: dose: 37.5 mg/kg/injection, vehicle: saline.
The mark [4] stands for this setting: dose: 75.0 mg/kg/injection, vehicle: saline.
Where [5] appears, read: dose: 12.5 mg/kg/injection, vehicle: Klucel (hydroxypropylcellulose) (HPC).
The mark [6] stands for this setting: dose: 50.0 mg/kg/injection, vehicle: Klucel (hydroxypropylcellulose) (HPC).
Setting [7] is: dose: 100.0 mg/kg/injection, vehicle: Klucel (hydroxypropylcellulose) (HPC).
Where [8] appears, read: dose: 2.5 mg/kg/injection, vehicle: saline.

The structures appear in SMILES notation. Values joined by “and” are separate entries in the source; they are usually repeats but may differ in a detail not shown here. Equal values may be shown once. Toxic doses and inconclusive results are not listed.

Take `CC(C)N1C(=O)N(Cl)C2C1N(Cl)C(=O)N2Cl` (stereo not given): the T/C (dose: 6.25 mg/kg/injection, vehicle: sodium bicarbonate) is 102 % of control; the T/C (dose: 12.5 mg/kg/injection, vehicle: sodium bicarbonate) was 107 % of control; the T/C (dose: 25.0 mg/kg/injection, vehicle: sodium bicarbonate) was 94 % of control; the T/C (dose: 50.0 mg/kg/injection, vehicle: saline) is 91 % of control; the T/C (dose: 50.0 mg/kg/injection, vehicle: sodium bicarbonate) was 114 % of control; the T/C (dose: 100.0 mg/kg/injection, vehicle: sodium bicarbonate) was 109 % of control.
In the case of `CCN(CC)C(=Nc1ccc(Cl)c(Cl)c1)SC(NC=O)=C(Cl)Cl`, the T/C was 104 % of control (dose: 50.0 mg/kg/injection, vehicle: Klucel + Tween-80); 97 % of control (dose: 100.0 mg/kg/injection, vehicle: Klucel + Tween-80); 91 % of control (dose: 200.0 mg/kg/injection, vehicle: Klucel + Tween-80).
`O=NN(CCCl)C(=O)NCCCl`: the T/C was 116 % of control (dose: 1.5 mg/kg/injection, vehicle: saline + alcohol); 163 % of control and 164 % of control (dose: 6.0 mg/kg/injection, vehicle: saline + alcohol); 224 % of control and 292 % of control (dose: 12.0 mg/kg/injection, vehicle: saline + alcohol); 248 % of control and 292 % of control (dose: 24.0 mg/kg/injection, vehicle: saline + alcohol); 244 % of control (dose: 48.0 mg/kg/injection, vehicle: saline + alcohol).
Turning to `CCOc1ccc(-c2nc3ccc(-c4nc5ccc(N6CCN(C)CC6)cc5[nH]4)cc3[nH]2)cc1`, the T/C is, setting by setting: (dose: 3.12 mg/kg/injection, vehicle: saline) 100 % of control; (dose: 6.25 mg/kg/injection, vehicle: saline) 88 % of control; under setting [1], 100 % of control; (dose: 25.0 mg/kg/injection, vehicle: saline) 92 % of control.
In the case of `O=S(Cl)C(Cl)=C(Cl)Cl` (stereo not given), under setting [2], the T/C is 86 % of control.
`CCN(CC)CCOC(=O)c1cc2cc3cc(C(=O)OCCN(CC)CC)c(=O)oc3c(C)c2oc1=O`: the T/C under setting [3] was 100 % of control; the T/C under setting [4] is 92 % of control; the T/C (dose: 150.0 mg/kg/injection, vehicle: saline) is 93 % of control.
`CN(C)CCNC1=C(Cl)C(=O)c2ccccc2C1=O`: the T/C is, setting by setting: (dose: 1.5 mg/kg/injection, vehicle: saline) 91 % of control; (dose: 3.0 mg/kg/injection, vehicle: saline) 98 % of control; (dose: 6.0 mg/kg/injection, vehicle: saline) 89 % of control; (dose: 12.0 mg/kg/injection, vehicle: saline) 105 % of control; under setting [1], 106 % of control.
Consider `CN(C)CCOCC(O)(c1ccccc1)c1ccccc1`, for which the T/C under setting [3] is 100 % of control and the T/C under setting [4] was 100 % of control.
Take `NC1=NCc2c(sc3c2CCCC3)N1`: the T/C is, setting by setting: under setting [5], 94 % of control; under setting [2], 94 % of control; under setting [6], 96 % of control; under setting [7], 93 % of control.
Take `CCN(CC)CCN1C(=O)C2C3C=CC(C2C1=O)C1C2C(=O)N(CCN(CC)CC)C(=O)C2C31` (stereo not given): the T/C runs as follows: (dose: 25.0 mg/kg/injection, vehicle: water) 95 % of control; (dose: 50.0 mg/kg/injection, vehicle: water) 99 % of control; (dose: 100.0 mg/kg/injection, vehicle: water) 97 % of control; (dose: 200.0 mg/kg/injection, vehicle: water) 99 % of control.
Take `COc1cc2c(c3c1c(=O)c1ccccc1n3C)C=CC(C)(C)O2`: the T/C (dose: 12.5 mg/kg/injection, vehicle: saline with Tween-80) is 112 % of control; the T/C (dose: 25.0 mg/kg/injection, vehicle: saline with Tween-80) was 121 % of control; the T/C (dose: 166.7 mg/kg/injection, vehicle: saline with Tween-80) is 110 % of control.
Turning to `COc1cc2c(cc1OC)[C@@H]1C(=O)c3ccc4c(c3O[C@@H]1CO2)C[C@H](C(C)C)O4`, the T/C was 104 % of control under setting [5], 104 % of control under setting [2] and 104 % of control under setting [6].
Take `O=C1CCCCCC2=NC12` (stereo not given): the T/C is, setting by setting: (dose: 6.25 mg/kg/injection, vehicle: Klucel (hydroxypropylcellulose) (HPC)) 98 % of control; under setting [5], 100 % of control and 105 % of control; under setting [2], 105 % of control and 112 % of control; under setting [6], 100 % of control and 113 % of control; under setting [7], 103 % of control and 113 % of control.
For the molecule `COc1cc2c(c(OC)c1OC)-c1ccc(OC)c(=O)cc1[C@@H](NC(C)=O)CC2`, the T/C runs as follows: (dose: 0.38 mg/kg/injection, vehicle: saline) 106 % of control; (dose: 0.54 mg/kg/injection, vehicle: saline) 101 % of control; (dose: 0.75 mg/kg/injection, vehicle: saline) 112 % of control; (dose: 0.9 mg/kg/injection, vehicle: saline) 116 % of control; under setting [8], 123 % of control; (dose: 185.0 micrograms/kg/injection, vehicle: saline) 96 % of control. In addition, the T/C runs as follows: (dose: 375.0 micrograms/kg/injection, vehicle: saline) 95 % of control; (dose: 750.0 micrograms/kg/injection, vehicle: saline) 100 % of control; (dose: 1500.0 micrograms/kg/injection, vehicle: saline) 100 % of control; (dose: 3000.0 micrograms/kg/injection, vehicle: saline) 97 % of control.
Regarding `O=c1/c(=C\C=C\c2ccccc2)sc2n1CCN=2`, the T/C (dose: 50.0 mg/kg/injection, vehicle: saline with Tween-80) is 95 % of control; the T/C (dose: 100.0 mg/kg/injection, vehicle: saline with Tween-80) was 99 % of control; the T/C (dose: 200.0 mg/kg/injection, vehicle: saline with Tween-80) was 91 % of control; the T/C (dose: 400.0 mg/kg/injection, vehicle: saline with Tween-80) is 99 % of control.
With `Oc1cc(O)cc(/C=C/c2ccc(O)c(O)c2)c1`, the T/C was 97 % of control (dose: 12.5 mg/kg/injection, vehicle: DMSO); 99 % of control (dose: 25.0 mg/kg/injection, vehicle: DMSO); 89 % of control (dose: 50.0 mg/kg/injection, vehicle: DMSO); 91 % of control (dose: 100.0 mg/kg/injection, vehicle: DMSO).
On to `C=CC1(C)CC(=O)C2(O)C(C)(O1)C(OC(C)=O)C(O)C1C(C)(C)CCC(O)C12C` (stereo not given), for which the T/C is 98 % of control (dose: 2.0 mg/kg/injection, vehicle: DMSO); 104 % of control (dose: 4.0 mg/kg/injection, vehicle: DMSO); 98 % of control (dose: 8.0 mg/kg/injection, vehicle: DMSO); 96 % of control and 101 % of control (dose: 16.0 mg/kg/injection, vehicle: DMSO); 95 % of control and 107 % of control (dose: 32.0 mg/kg/injection, vehicle: DMSO).
With `Cc1nc(N)nc(N)c1-c1ccc(Cl)c(Cl)c1`, the T/C was 105 % of control (dose: 1.25 mg/kg/injection, vehicle: saline); 100 % of control under setting [8]; 102 % of control (dose: 5.0 mg/kg/injection, vehicle: saline); 113 % of control (dose: 10.0 mg/kg/injection, vehicle: saline).

Source of the values: PubChem BioAssay AID292 (DTP/NCI, 2004).
